# Test results: paper PMC10865806, “Structural insights into the molecular mechanism of high-level ceftazidime–avibactam resistance conferred by CMY-185” (mBio, 2024)
# Tests used:
# Assay in all cases: Steady-state hydrolysis kinetics
# Format in all cases: biochemical, Escherichia coli
# [1] = target: T1, CMY-2 variant V211S_N346Y (Klebsiella pneumoniae, UniProt Q48434, N366Y/V231S)
# T1 construct: all CMY-2 variant genes encoding the mature enzyme without a signal peptide were cloned into the protein expression plasmid vector pET-30b; made in house; host or cells: E. coli BL21 (DE3), pET-30b
# From the text: (§1) We tested the enzymes, CMY-2, two single mutants V211S (CMY-42) and N346Y, three double mutants A114E_N346Y, Q120K_N346Y, and V211S_N346Y, and the quadruplet mutant CMY-185 to elucidate the impact on the kinetic properties resulting from the four amino acid substitutions present in CMY-185 compared with CMY-2 ([8]). The steady-state kinetic parameters kcat and Km (or Ki app) for nitrocefin, cephalothin, ceftazidime, and cefiderocol and the inhibition parameters Ki app, k2/K, k−2, and koff for avibactam are summarized in Table 1. During the hydrolysis of nitrocefin, we observed the reduction of the initial velocity at concentrations above 50 µM particularly for the CMY-2 variants harboring the N346Y substitution. As this could have represented substrate inhibition, we then determined the kinetics parameters for nitrocefin using the Haldane equation ([16]). […] In addition, during the hydrolysis of cefiderocol by CMY-185, the initial velocities at a concentration range of 3.7–59.4 µM were similar.
# (§2) The steady-state kinetics were carried out on a UV-Visible spectrometer (UV-1280, Shimadzu, Japan) in PBS pH 7.2 at 25°C with a constant amount of enzyme and varying concentrations of the substrates. We tested nitrocefin, cephalothin, ceftazidime, and cefiderocol as the substrates and avibactam as the inhibitor. The steady-state kinetics parameters Km and kcat were determined with the Michaelis-Menten equation. For poorly hydrolyzed substrates, the Km value was assumed to be the competitive inhibition constant (Ki app) value according to previous studies ([17], [19]). Inhibition parameter values of Ki app, k2/K, k−2, and koff for avibactam were determined using a method as described previously ([33]). Cephalothin was used as the reporter substrate for competitive inhibition experiments, and its concentration was fixed at 100 µM. The enzyme concentration was 1–10 nM. Inverse steady-state initial velocities were plotted against the concentration of the competitive inhibitor agents, such as ceftazidime, cefiderocol, and avibactam. The data were analyzed by linear regression analysis of the Dixon plot, and Ki app (observed) was determined by dividing the y-intercept value by the slope of the line. It was then corrected to account for the affinity of cephalothin for each enzyme using the Equation (1): […]
# [2] = target: T2, CMY-185 (Klebsiella pneumoniae, UniProt Q48434, A134E/N366Y/Q140K/V231S)
# T2 construct: all CMY-2 variant genes encoding the mature enzyme without a signal peptide were cloned into the protein expression plasmid vector pET-30b; made in house; host or cells: E. coli BL21 (DE3), pET-30b
# From the text: as §1, §2
# [3] = target: T3, CMY-2 variant Q120K_N346Y (Klebsiella pneumoniae, UniProt Q48434, N366Y/Q140K); conditions: substrate 100 µM, 100–200 nM enzyme
# T3 construct: all CMY-2 variant genes encoding the mature enzyme without a signal peptide were cloned into the protein expression plasmid vector pET-30b; made in house; host or cells: E. coli BL21 (DE3), pET-30b
# From the text: as §1, §2
# [4] = target: T4, V211S (CMY-42) (Klebsiella pneumoniae, UniProt Q48434, V231S); conditions: PBS pH 7.2, 25°C
# T4 construct: all CMY-2 variant genes encoding the mature enzyme without a signal peptide were cloned into the protein expression plasmid vector pET-30b; made in house; host or cells: E. coli BL21 (DE3), pET-30b
# From the text: as §1, §2
structure (smiles),measurement,setting,value
"CC(C)(O/N=C(\C(=O)N[C@@H]1C(=O)N2C(C(=O)[O-])=C(C[N+]3(CCNC(=O)c4ccc(O)c(O)c4Cl)CCCC3)CS[C@H]12)c1csc(N)n1)C(=O)O [Cefiderocol, cefiderocol]",fold lower Km,[1]; V211S_N346Y compared to V211S,10 fold
same,Km,"[1]; V211S_N346Y, PBS pH 7.2, 25°C",6.9 ± 1.5 µM
same,kcat,"[1]; V211S_N346Y, PBS pH 7.2, 25°C",0.049 ± 0.003 s⁻¹
same,kcat,[2]; determined with steady-state velocities (cefiderocol 3.7–59.4 µM) and Ki app assumed to Km,6.9 × 10^−3 ± 0.4 ×10^−3 a s^−1
same,kcat/Ki app,[2]; kcat/Ki app shown in the kcat/Km line,3.0 × 10^−2 ± 0.2 × 10^−2 b µM^−1 s^−1
same,hydrolysis,[3],no apparent hydrolysis
same,Km,[4],68 ± 11 µM
same,kcat,[4],0.034 ± 0.002 s⁻¹
same,kcat,[4]; listed as cefiderocol,(3.4 ± 0.2) × 10^−2 s^−1
